The text below walks through data of US12115178B2, “Acylated active agents and methods of their use for the treatment of autoimmune disorders” (Flagship Pioneering Innovations V, Inc., priority 2018, dated 2024).

One data set can be described thus: Assay 2. Stability in Simulated Intestinal Fluid (SIF). It is filed as in vitro ADME. Conditions: SIF pH 6.7 with pancreatin, 1 μM, 37° C. As for the experimental part:
Assay 2. Stability of acylated active agents in Simulated Intestinal Fluid (SIF). This assay was used to assess the stability of an acylated active agent in a small intestine. Phosphate buffer was prepared by dissolving 0.42 g of sodium hydroxide pellets and 3.95 g of monobasic sodium phosphate monohydrate and 6.19 g of sodium chloride in ultrapure water (MilliQ®, Millipore Sigma, Darmstadt, Germany). The pH was adjusted to 6.7 using aq. HCl and aq. NaOH, as necessary, and the solution was diluted with ultrapure water to produce 1 L of the pH 6.7 buffer. 112 mg FaSSIF powder (Biorelevant™, London, UK) was dissolved in 50 mL of the pH 6.7 buffer. 2 to 3 mL of the resulting solution were then added to 500 mg pancreatin (Millipore Sigma, Darmstadt, Germany). The resulting mixture was agitated by finger tapping the vessel containing the mixture until milky suspension formed. At this time, the remainder of the 50 mL FaSSiF/pH 6.7 buffer solution was added. The resulting suspension was flipped upside down 10 times to produce SIF, which was used fresh. Test compounds were dissolved in DMSO stock to 1 mM. An aliquot of the DMSO stock solution was removed and diluted in the SIF media in 15 mL falcon tubes to produce a mixture with a tested compound concentration of 1 μM. A 1 mL aliquot was immediately removed and diluted once with 1 volume of acetonitrile for T0 timepoint. The mixture was sealed and agitated at 37° C. in an incubator. Aliquots (1 mL) were removed at regular intervals and immediately quenched by the addition of 1 volume of acetonitrile. The resulting samples were analyzed by LC/MS to determine degradation rates.
Turning to `CC(=O)Oc1ccc(-c2oc3cc(OC(C)=O)cc(OC(C)=O)c3c(=O)c2OC(C)=O)cc1` [Compound 8, [4-(3,5,7-triacetoxy-4-oxo-chromen-2-yl)phenyl] acetate], the “Assay 2 (SIF) (% @ Remaining 4 hours)” value was “A (<25% of the tested compound remaining)”.

For the compound `CC(=O)Oc1cc(OC(C)=O)c2c(=O)c(OC(C)=O)c(-c3ccc(OC(C)=O)c(OC(C)=O)c3)oc2c1` [Compound 182, [2-acetoxy-4-(3,5,7-triacetoxy-4-oxo-chromen-2-yl)phenyl] acetate], the “Assay 2 (SIF) (% @ Remaining 4 hours)” value was “A (<25% of the tested compound remaining)”.

Regarding `CCCC(=O)O[C@H]1O[C@@H](C)[C@H](OC(=O)CCC)[C@@H](OC(=O)CCC)[C@H]1OC(=O)CCC` [Compound 119, (2R,3R,4R,5S,6S)-3,4,5-tris(butanoyloxy)-6-methyloxan-2-yl butanoate], the “Assay 2 (SIF) (% @ Remaining 4 hours)” value is reported as “A (<25% of the tested compound remaining)”.

In the case of `CCCC(=O)Nc1ccc(O[C@@H]2OC[C@@H](OC(=O)CCC)[C@H](OC(=O)CCC)[C@H]2OC(=O)CCC)c(C(=O)O)c1` [Compound 188, 5-butanamido-2-{[(2S,3R,4S,5R)-3,4,5-tris(butanoyloxy)oxan-2-yl]oxy}benzoic acid], the “Assay 2 (SIF) (% @ Remaining 4 hours)” value was “A (<25% of the tested compound remaining)”.

Regarding `CCCC(=O)O[C@H]1[C@@H](Oc2ccccc2C(=O)O)OC[C@@H](OC(=O)CCC)[C@H]1OC(=O)CCC` [Compound 42, 2-(((3R,4R,5R)-3,4,5-tris(butyryloxy)tetrahydro-2H-pyran-2-yl)oxy)benzoic acid], the “Assay 2 (SIF) (% @ Remaining 4 hours)” value is on record as “C (>75% of the tested compound remaining)”.

With `CCCC(=O)O[C@@H]1O[C@@H](C)[C@H](OC(=O)CCC)[C@@H](OC(=O)CCC)[C@H]1OC(=O)CCC` [Compound 120, (2S,3R,4R,5S,6S)-3,4,5-tris(butanoyloxy)-6-methyloxan-2-yl butanoate], the “Assay 2 (SIF) (% @ Remaining 4 hours)” value is recorded as “A (<25% of the tested compound remaining)”.

Take `CCCC(=O)O[C@H]1OC[C@@H](OC(=O)CCC)[C@H](OC(=O)CCC)[C@H]1OC(=O)CCC` [Compound 159, (2R,3R,4S,5R)-3,4,5-tris(butanoyloxy)oxan-2-yl butanoate]: the “Assay 2 (SIF) (% @ Remaining 4 hours)” value is listed as “C (>75% of the tested compound remaining)”.

Regarding `C[C@@H]1O[C@@H](OC(=O)Cc2c[nH]c3ccccc23)[C@H](OC(=O)Cc2c[nH]c3ccccc23)[C@H](OC(=O)Cc2c[nH]c3ccccc23)[C@H]1OC(=O)Cc1c[nH]c2ccccc12` [Compound 122, (2S,3R,4R,5S,6S)-3,4,5-tris({[2-(1H-indol-3-yl)acetyl]oxy})-6-methyloxan-2-yl 2-(1H-indol-3-yl)acetate], the “Assay 2 (SIF) (% @ Remaining 4 hours)” value was “A (<25% of the tested compound remaining)”.

Regarding `CC(=O)Oc1ccc2c(c1)oc(=O)c1cc(OC(C)=O)c(OC(C)=O)cc12` [Compound 203, 6-oxo-6H-benzo[c]chromene-3,8,9-triyl triacetate], the “Assay 2 (SIF) (% @ Remaining 4 hours)” value is listed as “B (25-75% of the tested compound remaining)”.

On to `CCCC(=O)OCC1(OC(=O)CCC)OC[C@@H](OC(=O)CCC)[C@H](OC(=O)CCC)[C@@H]1OC(=O)CCC` (stereo partly drawn) [Compound 131, [(3S,4S,5R)-2,3,4,5-tetrakis(butanoyloxy)oxan-2-yl]methyl butanoate], for which the “Assay 2 (SIF) (% @ Remaining 4 hours)” value is “A (<25% of the tested compound remaining)”.

Take `CCCC(=O)O[C@@H]1[C@@H](OC(=O)CCC)[C@@H](Oc2ccc(N)cc2C(=O)O)OC[C@H]1OC(=O)CCC` [Compound 184, 5-amino-2-[(2R,3R,4S,5R)-3,4,5-tri(butanoyloxy)tetrahydropyran-2-yl]oxy-benzoic acid]: the “Assay 2 (SIF) (% @ Remaining 4 hours)” value is given as “B (25-75% of the tested compound remaining)”.

Turning to `C[C@@H]1O[C@H](OC(=O)Cc2c[nH]c3ccccc23)[C@H](OC(=O)Cc2c[nH]c3ccccc23)[C@H](OC(=O)Cc2c[nH]c3ccccc23)[C@H]1OC(=O)Cc1c[nH]c2ccccc12` [Compound 121, (2R,3R,4R,5S,6S)-3,4,5-tris({[2-(1H-indol-3-yl)acetyl]oxy})-6-methyloxan-2-yl 2-(1H-indol-3-yl)acetate], the “Assay 2 (SIF) (% @ Remaining 4 hours)” value is “A (<25% of the tested compound remaining)”.

With `CC(=O)Oc1ccc([C@@H]2CC(=O)c3c(OC(C)=O)cc(OC(C)=O)cc3O2)cc1` [Compound 176, (S)-2-(4-acetoxyphenyl)-4-oxochromane-5,7-diyl diacetate], the “Assay 2 (SIF) (% @ Remaining 4 hours)” value is given as “A (<25% of the tested compound remaining)”.

As for `CCCC(=O)Oc1ccc([C@@H]2CC(=O)c3c(OC(=O)CCC)cc(OC(=O)CCC)cc3O2)cc1` [Compound 175, (S)-2-(4-(butyryloxy)phenyl)-4-oxochromane-5,7-diyl dibutyrate], the “Assay 2 (SIF) (% @ Remaining 4 hours)” value is “A (<25% of the tested compound remaining)”.

For the compound `CCCC(=O)O[C@@H]1[C@@H](OC(=O)CCC)[C@H](C)O[C@@H](O)[C@@H]1OC(=O)CCC` [Compound 141, (2S,3S,4R,5R)-4,5-bis(butanoyloxy)-6-hydroxy-2-methyloxan-3-yl butanoate], the “Assay 2 (SIF) (% @ Remaining 4 hours)” value is listed as “C (>75% of the tested compound remaining)”.

As to `CCCC(=O)Oc1ccc(/N=N/c2ccc(OC(=O)CCC)c(C(=O)O)c2)cc1C(=O)O` [Compound 17, 2-butanoyloxy-5-[(E)-(4-butanoyloxy-3-carboxy-phenyl)azo]benzoic acid], the “Assay 2 (SIF) (% @ Remaining 4 hours)” value was “A (<25% of the tested compound remaining)”.

The next data set is described as follows: Assay 1. Stability in Simulated Gastric Fluid (SGF). It is filed as in vitro ADME. Particulars: SGF pH 1.6 with pepsin, 1 μM, 37° C. The protocol: Assay 1. Stability of acylated active agents in Simulated Gastric Fluid (SGF). This assay was used to assess the stability of an acylated active agent in a stomach.
Medium was prepared by dissolving 2 g of sodium chloride in 0.6 L in ultrapure water (MilliQ®, Millipore Sigma, Darmstadt, Germany). The pH was adjusted to 1.6 with 1N hydrochloric acid, and the volume was then adjusted to 1 L with purified water.
60 mg FaSSIF powder (Biorelevant™, London, UK) were dissolved in 500 mL buffer (above). Pepsin was added (0.1 mg/mL) (Millipore Sigma, Darmstadt, Germany), and the solution was stirred. The resulting SGF media were used fresh for each experiment.
Test compounds were dissolved in DMSO stock to 1 mM. An aliquot of the DMSO stock solution was removed and diluted in the SGF Media in 15 mL falcon tubes to generate a total compound concentration of 1 μM. A 1 mL aliquot was immediately removed and diluted once with 1 volume of acetonitrile for T0 timepoint. The mixture was sealed and mixed at 37° C. in an incubator. Aliquots (1 mL) were removed at regular intervals and immediately quenched by the addition of 1 volume of acetonitrile. The resulting samples were analyzed by LC/MS to determine degradation rates in SGF.
For the compound `CCC(=O)O[C@H]1[C@H](OC(=O)CC)[C@H](OC(=O)/C=C/c2c[nH]c3ccccc23)O[C@@H](C)[C@H]1OC(=O)CC` [Compound 116, (2S,3S,4R,5R,6S)-6-methyl-3,4,5-tris(propanoyloxy)oxan-2-yl (2E)-3-(1H-indol-3-yl)prop-2-enoate], the “Assay 1 (SGF) (% Remaining @ 1 hour)” value is listed as “C (>75% of the tested compound remaining)”.

Consider `CCC(=O)O[C@@H]1OC[C@H](OC(=O)CC)[C@H](OC(=O)CC)[C@H]1OC(=O)CC` [Compound 128, (2S,3R,4S,5S)-3,4,5-tris(propanoyloxy)oxan-2-yl propanoate], for which the “Assay 1 (SGF) (% Remaining @ 1 hour)” value is given as “C (>75% of the tested compound remaining)”.

For the compound `CCC(=O)O[C@@H]1[C@@H](OC(=O)CC)[C@@H](OC(=O)CCc2c[nH]c3ccccc23)OC[C@H]1OC(=O)CC` [Compound 75, (2R,3R,4S,5R)-3,4,5-tris(propanoyloxy)oxan-2-yl 3-(1H-indol-3-yl)propanoate], the “Assay 1 (SGF) (% Remaining @ 1 hour)” value is on record as “C (>75% of the tested compound remaining)”.

Consider `CCC(=O)Oc1cc(OC(=O)CC)c2c(c1)O[C@H](c1cc(OC(=O)CC)c(OC(=O)CC)c(OC(=O)CC)c1)[C@H](OC(=O)c1cc(OC(=O)CC)c(OC(=O)CC)c(OC(=O)CC)c1)C2` [Compound 195, [(2R,3R)-5,7-di(propanoyloxy)-2-[3,4,5-tri(propanoyloxy)phenyl]chroman-3-yl] 3,4,5-tri(propanoyloxy)benzoate], for which the “Assay 1 (SGF) (% Remaining @ 1 hour)” value was “C (>75% of the tested compound remaining)”.

As for `CC(=O)Oc1ccc(-c2oc3cc(OC(C)=O)cc(OC(C)=O)c3c(=O)c2OC(C)=O)cc1` [Compound 177, [4-(3,5,7-triacetoxy-4-oxo-chromen-2-yl)phenyl] acetate], the “Assay 1 (SGF) (% Remaining @ 1 hour)” value is “C (>75% of the tested compound remaining)”.
